Biological target: T1, Caspase-3 (Homo sapiens, UniProt P42574)
T1 sequence (P42574 whole entry): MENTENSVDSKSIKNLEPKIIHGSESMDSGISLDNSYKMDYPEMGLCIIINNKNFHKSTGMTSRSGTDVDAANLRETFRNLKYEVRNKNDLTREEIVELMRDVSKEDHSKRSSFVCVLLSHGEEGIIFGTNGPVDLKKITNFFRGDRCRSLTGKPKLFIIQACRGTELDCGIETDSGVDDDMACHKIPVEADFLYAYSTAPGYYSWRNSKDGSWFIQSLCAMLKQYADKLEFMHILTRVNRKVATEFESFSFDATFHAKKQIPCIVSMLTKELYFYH
Assay: procaspase-3 activators, dose response, biochemical, absorbance (AID 489014)

O=C(CC1=NC2(CCCC2)Cc2ccccc21)C(=O)NN=Cc1ccccc1O [SMR000219463]
EC50: > 85.3 µM

O=c1c2c(-c3ccccc3)[nH]n(-c3ccccc3)c-2c(O)n1-c1ccccc1 [SMR000269383]
EC50: > 85.3 µM

Source: BindingDB's records for doi:10.7270/Q2Z31X4P (The Scripps Research Institute Molecular Screening Center, 2010)
